Our source for the IC50 values is patent publication US8168647B2, “Vinblastine derivatives, their preparation, use and pharmaceutical compositions comprising the said derivatives” (Shanghai Institute of Materia Medica Chinese Academy of …, priority 2007, dated 2012).

Molecules are shown by their SMILES.

For assay [1], the system named is human non-small cell lung cancer cell line A-549. Kind of assay: In vitro cytotoxicity assay, Sulforhodamine B (SRB), A-549. Type of assay: cell-based. The following applies: Homo sapiens, A549, 72 h, read-out: A549 (IC50, nM).
The subject of assay [2] is human cervical carcinoma cell line Hela. Kind of assay: In vitro cytotoxicity assay, Sulforhodamine B (SRB), Hela. Type of assay: cell-based. Particulars: Homo sapiens, HeLa, 72 h, read-out: Hela (IC50, nM).

`CCC1=C[C@@H]2CN(CCc3c([nH]c4ccccc34)[C@@](C(=O)OC)(c3cc4c(cc3OC)N(C)[C@H]3C(O)(CNC(=O)c5ccc(OC)cc5)[C@H](OC(C)=O)[C@]5(CC)C=CCN6CC[C@]43C65)C2)C1` (stereo partly shown) [BM45]: the IC50 was 578 nM in assay [1] and 135 nM in assay [2].
Turning to `CCC1=C[C@@H]2CN(CCc3c([nH]c4ccccc34)[C@@](C(=O)OC)(c3cc4c(cc3OC)N(C)[C@H]3C(O)(CNC(=O)CC(C)C)[C@H](OC(C)=O)[C@]5(CC)C=CCN6CC[C@]43[C@@H]65)C2)C1` (stereo partly shown) [BM30], the IC50 in assay [1] and in assay [2] was more than 1000 nM in each case.
For `CCC1=C[C@@H]2CN(CCc3c([nH]c4ccccc34)[C@@](C(=O)OC)(c3cc4c(cc3OC)N(C)[C@H]3C(O)(CNC(=O)OC(C)(C)C)[C@H](OC(C)=O)[C@]5(CC)C=CCN6CC[C@]43[C@@H]65)C2)C1` (stereo partly shown) [BM51], the IC50 in assay [1] was found to be 505 nM; in assay [2], 172 nM.
Turning to `CCC1=C[C@@H]2CN(CCc3c([nH]c4ccccc34)[C@@](C(=O)OC)(c3cc4c(cc3OC)N(C)[C@H]3C(O)(CNC(=O)OC5CCCC5)[C@H](OC(C)=O)[C@]5(CC)C=CCN6CC[C@]43[C@@H]65)C2)C1` (stereo partly shown) [BM59], the IC50 in assay [1] came out at 170 nM; in assay [2], 79.8 nM.
On the same counts, the results for `CCC1=C[C@@H]2CN(CCc3c([nH]c4ccccc34)[C@@](C(=O)OC)(c3cc4c(cc3OC)N(C)[C@H]3C(O)(COC(=O)NCCC(C)C)[C@H](OC(C)=O)[C@]5(CC)C=CCN6CC[C@]43[C@@H]65)C2)C1` (stereo partly shown) [BM24] are more than 1000 nM and more than 1000 nM.
As to `CCC1=C[C@@H]2CN(CCc3c([nH]c4ccccc34)[C@@](C(=O)OC)(c3cc4c(cc3OC)N(C)[C@H]3[C@@]5(CNC(=O)O5)[C@H](OC(C)=O)[C@]5(CC)C=CCN6CC[C@]43[C@@H]65)C2)C1` [BM74], the figures for the IC50 in assay [1] and in assay [2] were 710 nM and 342 nM, respectively.
On the same counts, the results for `CCC1=C[C@@H]2CN(CCc3c([nH]c4ccccc34)[C@@](C(=O)OC)(c3cc4c(cc3OC)N(C)[C@H]3C(O)(CNC(=O)C(C)C)[C@H](OC(C)=O)[C@]5(CC)C=CCN6CC[C@]43[C@@H]65)C2)C1` (stereo partly shown) [BM28] are 101 nM and 75.8 nM.
The like results for `CCC1=C[C@@H]2CN(CCc3c([nH]c4ccccc34)[C@@](C(=O)OC)(c3cc4c(cc3OC)N(C)[C@H]3C(O)(CNC(=O)c5ccc(C)cc5)[C@H](OC(C)=O)[C@]5(CC)C=CCN6CC[C@]43[C@@H]65)C2)C1` (stereo partly shown) [BM37] were, in that order, 20.7 nM and 16 nM.
The like results for `CCC1=C[C@@H]2CN(CCc3c([nH]c4ccccc34)[C@@](C(=O)OC)(c3cc4c(cc3OC)N(C)[C@H]3C(O)(COC(=O)Cc5ccccc5)[C@H](OC(C)=O)[C@]5(CC)C=CCN6CC[C@]43[C@@H]65)C2)C1` (stereo partly shown) [BM15] were, in that order, more than 1000 nM and 228 nM.
In the case of `CCC1=C[C@@H]2CN(CCc3c([nH]c4ccccc34)[C@@](C(=O)OC)(c3cc4c(cc3OC)N(C)[C@H]3C(O)(CNC(=O)OCc5cccc(Cl)c5)[C@H](OC(C)=O)[C@]5(CC)C=CCN6CC[C@]43[C@@H]65)C2)C1` (stereo partly shown) [BM70], the half-inhibitory concentration (IC50) in assay [1] and in assay [2] was more than 1000 nM in each case.
`CCC1=C[C@@H]2CN(CCc3c([nH]c4ccccc34)[C@@](C(=O)OC)(c3cc4c(cc3OC)N(C)[C@H]3C(O)(CNC(=O)CC(C)(C)C)[C@H](OC(C)=O)[C@]5(CC)C=CCN6CC[C@]43[C@@H]65)C2)C1` (stereo partly shown) [BM31]: the figures for the concentration for half-maximal inhibition (IC50) in assay [1] and in assay [2] were 395 nM and 245 nM, respectively.
On the same counts, the results for `CCC1=C[C@@H]2CN(CCc3c([nH]c4ccccc34)[C@@](C(=O)OC)(c3cc4c(cc3OC)N(C)[C@H]3C(O)(CNC(=O)C(C)(C)C)[C@H](OC(C)=O)[C@]5(CC)C=CCN6CC[C@]43[C@@H]65)C2)C1` (stereo partly shown) [BM34] are 338 nM and 73.5 nM.
On the same counts, the results for `CCC1=C[C@@H]2CN(CCc3c([nH]c4ccccc34)[C@@](C(=O)OC)(c3cc4c(cc3OC)N(C)[C@H]3C(O)(CNC(=O)Oc5ccc(OC)cc5)[C@H](OC(C)=O)[C@]5(CC)C=CCN6CC[C@]43[C@@H]65)C2)C1` (stereo partly shown) [BM65] are 344 nM and 159 nM.
On the same counts, the results for `CCC1=C[C@@H]2CN(CCc3c([nH]c4ccccc34)[C@@](C(=O)OC)(c3cc4c(cc3OC)N(C)[C@H]3C(O)(CNC(=O)c5ccc(F)cc5)[C@H](OC(C)=O)[C@]5(CC)C=CCN6CC[C@]43C65)C2)C1` (stereo partly shown) [BM38] are 46.5 nM and 20.4 nM.
In the case of `CCOCC1(O)[C@H](OC(C)=O)[C@]2(CC)C=CCN3CC[C@@]4(c5cc([C@@]6(C(=O)OC)C[C@@H]7C=C(CC)CN(CCc8c6[nH]c6ccccc86)C7)c(OC)cc5N(C)[C@@H]14)[C@@H]32` (stereo partly shown) [BM1], the IC50 in assay [1] was 348 nM; in assay [2], 154 nM.
The like results for `CCC1=C[C@@H]2CN(CCc3c([nH]c4ccccc34)[C@@](C(=O)OC)(c3cc4c(cc3OC)N(C)[C@H]3C(O)(CNC(=O)OC5CCCCC5)[C@H](OC(C)=O)[C@]5(CC)C=CCN6CC[C@]43[C@@H]65)C2)C1` (stereo partly shown) [BM60] were, in that order, 226 nM and 75.9 nM.
On the same counts, the results for `CCC1=C[C@@H]2CN(CCc3c([nH]c4ccccc34)[C@@](C(=O)OC)(c3cc4c(cc3OC)N(C)[C@H]3C(O)(CNC(=O)Oc5ccc(F)c(F)c5)[C@H](OC(C)=O)[C@]5(CC)C=CCN6CC[C@]43[C@@H]65)C2)C1` (stereo partly shown) [BM63] are more than 1000 nM and 264 nM.
Consider `CCC1=C[C@@H]2CN(CCc3c([nH]c4ccccc34)[C@@](C(=O)OC)(c3cc4c(cc3OC)N(C)[C@H]3C(O)(COC(=O)C5CC5)[C@H](OC(C)=O)[C@]5(CC)C=CCN6CC[C@]43[C@@H]65)C2)C1` (stereo partly shown) [BM14], for which the IC50 in assay [1] and in assay [2] was more than 1000 nM each time.
Take `CC[C@]12C=CCN3CC[C@@]4(c5cc([C@@]6(C(=O)OC)C[C@@H]7C[C@@H](C(C)(F)F)CN(CCc8c6[nH]c6ccccc86)C7)c(OC)cc5N(C)[C@H]4C(O)(CNC(C)=O)[C@@H]1OC(C)=O)[C@@H]32` (stereo partly shown) [BM77]: the IC50 in assay [1] and in assay [2] was more than 1000 nM in each case.
Regarding `CCC1=C[C@@H]2CN(CCc3c([nH]c4ccccc34)[C@@](C(=O)OC)(c3cc4c(cc3OC)N(C)[C@H]3C(O)(COCc5ccc(OC)cc5)[C@H](OC(C)=O)[C@]5(CC)C=CCN6CC[C@]43C65)C2)C1` (stereo partly shown) [BM5], the IC50 in assay [1] is more than 1000 nM; in assay [2], 286 nM.
Regarding `CCC1=C[C@@H]2CN(CCc3c([nH]c4ccccc34)[C@@](C(=O)OC)(c3cc4c(cc3OC)N(C)[C@H]3C(O)(CNC(=O)Oc5ccc(F)cc5)[C@H](OC(C)=O)[C@]5(CC)C=CCN6CC[C@]43[C@@H]65)C2)C1` (stereo partly shown) [BM62], the figures for the concentration for half-maximal inhibition (IC50) in assay [1] and in assay [2] were more than 1000 nM and 377 nM, respectively.
On the same counts, the results for `CCCCCOC(=O)NCC1(O)[C@H](OC(C)=O)[C@]2(CC)C=CCN3CC[C@@]4(c5cc([C@@]6(C(=O)OC)C[C@@H]7C=C(CC)CN(CCc8c6[nH]c6ccccc86)C7)c(OC)cc5N(C)[C@@H]14)[C@@H]32` (stereo partly shown) [BM56] are 332 nM and 78.4 nM.
The like results for `CCC1=C[C@@H]2CN(CCc3c([nH]c4ccccc34)[C@@](C(=O)OC)(c3cc4c(cc3OC)N(C)[C@H]3C(O)(COC(=O)NCC(C)C)[C@H](OC(C)=O)[C@]5(CC)C=CCN6CC[C@]43C65)C2)C1` (stereo partly shown) [BM22] were, in that order, more than 1000 nM and more than 1000 nM.
The like results for `CCC1=C[C@@H]2CN(CCc3c([nH]c4ccccc34)[C@@](C(=O)OC)(c3cc4c(cc3OC)N(C)[C@H]3C(O)(CNC(=O)Cc5ccccc5)[C@H](OC(C)=O)[C@]5(CC)C=CCN6CC[C@]43C65)C2)C1` (stereo partly shown) [BM46] were, in that order, 174 nM and 22.9 nM.
Take `CCC1=C[C@@H]2CN(CCc3c([nH]c4ccccc34)[C@@](C(=O)OC)(c3cc4c(cc3OC)N(C)[C@H]3C(O)(CNC(=O)C5CCC5)[C@H](OC(C)=O)[C@]5(CC)C=CCN6CC[C@]43[C@@H]65)C2)C1` (stereo partly shown) [BM35]: the half-inhibitory concentration (IC50) in assay [1] came to 117 nM; in assay [2] it was 45.2 nM.
`CCC1=C[C@@H]2CN(CCc3c([nH]c4ccccc34)[C@@](C(=O)OC)(c3cc4c(cc3OC)N(C)[C@H]3C(O)(CNC(=O)OCc5ccccc5)[C@H](OC(C)=O)[C@]5(CC)C=CCN6CC[C@]43[C@@H]65)C2)C1` (stereo partly shown) [BM66]: the IC50 in assay [1] turned out to be 261 nM; in assay [2] it was 87.5 nM.
The like results for `CCC1=C[C@@H]2CN(CCc3c([nH]c4ccccc34)[C@@](C(=O)OC)(c3cc4c(cc3OC)N(C)[C@H]3C(O)(CNC(=O)OCc5ccc(OC)cc5)[C@H](OC(C)=O)[C@]5(CC)C=CCN6CC[C@]43[C@@H]65)C2)C1` (stereo partly shown) [BM68] were, in that order, 150 nM and 87.6 nM.
On the same counts, the results for `CCCCNC(=O)OCC1(O)[C@H](OC(C)=O)[C@]2(CC)C=CCN3CC[C@@]4(c5cc([C@@]6(C(=O)OC)C[C@@H]7C=C(CC)CN(CCc8c6[nH]c6ccccc86)C7)c(OC)cc5N(C)[C@@H]14)[C@@H]32` (stereo partly shown) [BM23] are more than 1000 nM and more than 1000 nM.
On to `CCC1=C[C@@H]2CN(CCc3c([nH]c4ccccc34)[C@@](C(=O)OC)(c3cc4c(cc3OC)N(C)[C@H]3C(O)(CNC(=O)c5ccncc5)[C@H](OC(C)=O)[C@]5(CC)C=CCN6CC[C@]43C65)C2)C1` (stereo partly shown) [BM42], for which the IC50 in assay [1] came out at 78.3 nM; in assay [2] it was 22.4 nM.
`CCC1=C[C@@H]2CN(CCc3c([nH]c4ccccc34)[C@@](C(=O)OC)(c3cc4c(cc3OC)N(C)[C@H]3C(O)(CNC(=O)Oc5ccccc5)[C@H](OC(C)=O)[C@]5(CC)C=CCN6CC[C@]43[C@@H]65)C2)C1` (stereo partly shown) [BM61]: the IC50 in assay [1] was found to be 978 nM; in assay [2], 683 nM.
On the same counts, the results for `CCC1=C[C@@H]2CN(CCc3c([nH]c4ccccc34)[C@@](C(=O)OC)(c3cc4c(cc3OC)N(C)[C@H]3C(O)(COC(=O)C(C)C)[C@H](OC(C)=O)[C@]5(CC)C=CCN6CC[C@]43[C@@H]65)C2)C1` (stereo partly shown) [BM11] are more than 1000 nM and more than 1000 nM.
The like results for `CCC1=C[C@@H]2CN(CCc3c([nH]c4ccccc34)[C@@](C(=O)OC)(c3cc4c(cc3OC)N(C)[C@H]3C(O)(CNC(=O)c5ccccc5)[C@H](OC(C)=O)[C@]5(CC)C=CCN6CC[C@]43[C@@H]65)C2)C1` (stereo partly shown) [BM36] were, in that order, 87.4 nM and 16.4 nM.
